Experimental data reported in patent publication US9493479B2 (Merck Sharp & Dohme Corp., priority 2013, dated 2016).

How the values were obtained:
HIV-1 (NL4-3 strain) = assay: ViKinG (Viral Kinetics GFP Reporter) assay for inhibition of HIV replication; assay type: cell-based; details: Human immunodeficiency virus 1, NL43; MT4-GFP cells infected with HIV-1 NL4-3; RPMI + 10% or 50% NHS (not given); infected cells at 48 h / 24 h
Text: The ViKinG (Viral Kinetics GFP Reporter) assay is an in vitro kinetic assay that employs the MT4-gag-GFP reporter cell line (Wang et al., “Assessment of the susceptibility of mutant HIV-1 to antiviral agents.” J Virological Methods 165:230-37 (2010)) to quantify the number of new cells infected in each round of replication. The purpose of the ViKinG assay is to identify agents that inhibit HIV progression. Briefly, HIV infection results in tat transactivation of the stably expressed HIV LTR promoter to drive gagGFP expression. Thus, an increase in the number of GFP-MT4 cells results following HIV infection.
MT4-GFP cells (250,000 cells/m1) were bulk-infected with HIV-1 (NL4-3 strain) at low multiplicity of infection (MOT) in RPMI+10% FBS for 24 hours. Cells were then washed once in RPMI+10% FBS and resuspended RPMI+10% or 50% normal human serum (NHS). Test compounds were serial-diluted in DMSO on an ECHO® liquid handling platform (Labcyte Corp., Sunnyvale, Calif.), along with a triple drug control (integrase, protease and NNRTI compounds). The infected MT4-GFP cells were added to a 384-well poly-D-lysine coated black plate with clear bottom in which the diluted test compounds were placed. The cells were seeded at 8,000 cells per well and the final DMSO concentration was 0.4%. The infected cells (Green GFP cells) were quantified at both 24 and 48 hours post incubation using Acumen® eX3 (TTP Labtech Ltd., Hertfordshire, United Kingdom). Viral reproductive ratio (R0) was determined using the number of infected cells at 48 hours divided by the number of infected cells at 24 hours. Percent viral growth inhibition was calculated by [1−(R−Rtripledrug)/(RDMSO−Rtripledrug)]*100. Compound potency IP or IC50 was determined by a 4-parameter dose response curve analysis.

WT-Integrase = target: T1, WT-Integrase (Human immunodeficiency virus type 1 group M subtype B, UniProt P04585); assay: InSTANT integrase DNA strand transfer functional assay; assay type: biochemical, HIV; details: SPA strand transfer, 15 minutes at 37° C.
T1 construct: assembled PVT SPA beads with WT-Integrase and boitinylated DNA
Description: InSTANT is an integrase DNA strand transfer functional assay used to determine potency of InSTIs, which was carried out as described below. 8 μl of SPA buffer (27.8 mM Hepes, 27.8 mM MgCl2, 111.1 μg/mL BSA, 5.56 mM βME, and 57.1 mM NaCl) containing 5 nM 3H-labeled target DNA (prepared separately) and 10 μl of assembled PVT SPA beads with WT-Integrase and boitinylated DNA (prepared separately) were added to the assay plate which contained 0.4 μl of test compound(s) or positive or negative control compound(s) per well. The assay plate was shaken for 1 minute on HT-91002 1.0 MM shaker and then was sealed and incubated for 15 minutes at 37° C. The assay reaction was quenched by adding 4 μl of 1.25 M EDTA to each well of the assay plate with mixing. After incubating the plate at room temperature for 1 hour, the quenched plate was spun at 200 g for 1 minute and read on TopCount (1 minute per well). Percent inhibition was calculated by [1−(Sample−Min)/(Max−Min)]*100. Compound potency IP or IC50 was determined by a 4-parameter dose response curve analysis.

## CCC1COCc2c1c(=O)c(O)c1n2CCN(Cc2ccc(F)cc2)C1=O (stereo not drawn) [Compound 6]
HIV-1 (NL4-3 strain)
  IC50: 492 nM
WT-Integrase
  IC50: 21 nM

## CC1=CCOCc2c1c(=O)c(O)c1n2CCN(Cc2ccc(F)c(Cl)c2)C1=O [Compound 4, 9-(3-chloro-4-fluorobenzyl)-7-hydroxy-5-methyl-10,11-dihydro-1H-oxepino[4′,3′:5,6]pyrido[1,2-a]pyrazine-6,8(3H,9H)-dione]
HIV-1 (NL4-3 strain)
  IC50: 91 nM
WT-Integrase
  IC50: 18 nM

## O=C1c2c(O)c(=O)c3c(n2CCN1Cc1ccc(F)c(Cl)c1)COCC=C3 [Compound 2, 9-(3-chloro-4-fluorobenzyl)-7-hydroxy-10,11-dihydro-1H-oxepino[4′,3′:5,6]pyrido[1,2-a]pyrazine-6,8(3H,9H)-dione]
HIV-1 (NL4-3 strain)
  IC50: 76 nM
WT-Integrase
  IC50: 11 nM

## CC(C)c1c(C(=O)N(C)C)n2c(c(O)c1=O)C(=O)N(Cc1ccc(F)c(Cl)c1)CC2 [Compound 19, 2-(3-chloro-4-fluorobenzyl)-9-hydroxy-7-isopropyl-N,N-dimethyl-1,8-dioxo-2,3,4,8-tetrahydro-1H-pyrido[1,2-a]pyrazine-6-carboxamide]
HIV-1 (NL4-3 strain)
  IC50: 82 nM
WT-Integrase
  IC50: 10 nM

## CC1CC12COCc1c2c(=O)c(O)c2n1CCN(Cc1ccc(F)c(Cl)c1)C2=O (stereo not drawn) [Compound 8, 8′-(3-chloro-4-fluorobenzyl)-6′-hydroxy-2-methyl-9′,10′-dihydro-1′H-spiro[cyclopropane-1,4′-pyrano[4′,3′:5,6]pyrido[1,2-a]pyrazine]-5′,7′(3′H,8′H)-dione]
HIV-1 (NL4-3 strain)
  IC50: 507 nM
WT-Integrase
  IC50: 28 nM

## O=C1c2c(O)c(=O)c3c(n2CCN1Cc1ccc(F)c(Cl)c1)COCCC3 [Compound 1, 9-(3-chloro-4-fluorobenzyl)-7-hydroxy-4,5,10,11-tetrahydro-1H-oxepino[4′,3′:5,6]pyrido[1,2-a]pyrazine-6,8(3H,9H)-dione]
HIV-1 (NL4-3 strain)
  IC50: 347 nM
WT-Integrase
  IC50: 58 nM
